Tests used:
Assay in all cases: Epigenetic panel (BPS Bioscience)
Format in all cases: biochemical
SETD2 = molecular target: T1, SETD2 (Homo sapiens, UniProt Q9BYW2)
T1 construct: purchased BPS Bioscience; Eurofins (HDAC4, 5, 7-11)
How it was run: (§1)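 Duplicate binding experiments at 10 μM tested whether CM-444 and CM-1758 engage off-target epigenetic proteins, including bromodomains, histone demethylases and methyltransferases.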

PRMT4 = molecular target: T2, PRMT4 (Homo sapiens, UniProt Q86X55)
T2 construct: purchased BPS Bioscience; Eurofins (HDAC4, 5, 7-11)
T2 sequence (Q86X55 whole entry): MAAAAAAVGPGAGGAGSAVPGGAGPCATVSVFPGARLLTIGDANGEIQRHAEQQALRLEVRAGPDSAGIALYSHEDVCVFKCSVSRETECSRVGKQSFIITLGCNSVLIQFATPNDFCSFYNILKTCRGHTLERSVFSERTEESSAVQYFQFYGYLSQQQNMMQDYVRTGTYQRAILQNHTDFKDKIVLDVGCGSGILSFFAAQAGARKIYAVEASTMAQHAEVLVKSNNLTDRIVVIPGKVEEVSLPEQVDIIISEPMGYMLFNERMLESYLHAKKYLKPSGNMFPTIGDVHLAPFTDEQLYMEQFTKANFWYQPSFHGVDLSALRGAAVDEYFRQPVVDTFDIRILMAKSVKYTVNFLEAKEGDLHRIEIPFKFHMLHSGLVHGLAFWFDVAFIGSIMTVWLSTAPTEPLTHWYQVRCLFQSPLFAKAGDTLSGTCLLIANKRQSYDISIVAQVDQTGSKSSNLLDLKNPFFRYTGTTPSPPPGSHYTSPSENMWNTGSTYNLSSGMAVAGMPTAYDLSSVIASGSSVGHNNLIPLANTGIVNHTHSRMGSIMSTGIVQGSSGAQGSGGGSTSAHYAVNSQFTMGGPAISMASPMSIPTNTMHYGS
How it was run: as §1

JMJD1B = molecular target: T3, JMJD1B (Homo sapiens, UniProt Q7LBC6)
T3 construct: purchased BPS Bioscience; Eurofins (HDAC4, 5, 7-11)
How it was run: as §1

SMYD2 = molecular target: T4, SMYD2 (Homo sapiens, UniProt Q9NRG4)
T4 construct: purchased BPS Bioscience; Eurofins (HDAC4, 5, 7-11)
T4 sequence (Q9NRG4 whole entry): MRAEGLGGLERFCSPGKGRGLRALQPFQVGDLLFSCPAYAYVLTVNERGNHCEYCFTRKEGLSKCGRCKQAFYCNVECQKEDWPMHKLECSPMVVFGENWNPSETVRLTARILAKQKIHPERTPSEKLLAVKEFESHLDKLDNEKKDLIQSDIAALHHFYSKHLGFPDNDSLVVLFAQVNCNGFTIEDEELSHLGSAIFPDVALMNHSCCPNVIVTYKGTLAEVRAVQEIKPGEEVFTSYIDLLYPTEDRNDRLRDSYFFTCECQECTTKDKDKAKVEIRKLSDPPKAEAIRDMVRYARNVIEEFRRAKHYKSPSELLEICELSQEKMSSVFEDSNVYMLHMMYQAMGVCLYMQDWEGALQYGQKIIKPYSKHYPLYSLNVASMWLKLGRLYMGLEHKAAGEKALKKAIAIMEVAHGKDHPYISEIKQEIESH
How it was run: as §1

EZH2 (P132S) = molecular target: T5, EZH2 (P132S) (Homo sapiens, UniProt Q15910, P132S)
T5 construct: purchased BPS Bioscience; Eurofins (HDAC4, 5, 7-11)
How it was run: as §1

FBXL10 = molecular target: T6, FBXL10 (Homo sapiens, UniProt Q8NHM5)
T6 construct: purchased BPS Bioscience (contracted assay service)
T6 sequence (Q8NHM5 1-1336): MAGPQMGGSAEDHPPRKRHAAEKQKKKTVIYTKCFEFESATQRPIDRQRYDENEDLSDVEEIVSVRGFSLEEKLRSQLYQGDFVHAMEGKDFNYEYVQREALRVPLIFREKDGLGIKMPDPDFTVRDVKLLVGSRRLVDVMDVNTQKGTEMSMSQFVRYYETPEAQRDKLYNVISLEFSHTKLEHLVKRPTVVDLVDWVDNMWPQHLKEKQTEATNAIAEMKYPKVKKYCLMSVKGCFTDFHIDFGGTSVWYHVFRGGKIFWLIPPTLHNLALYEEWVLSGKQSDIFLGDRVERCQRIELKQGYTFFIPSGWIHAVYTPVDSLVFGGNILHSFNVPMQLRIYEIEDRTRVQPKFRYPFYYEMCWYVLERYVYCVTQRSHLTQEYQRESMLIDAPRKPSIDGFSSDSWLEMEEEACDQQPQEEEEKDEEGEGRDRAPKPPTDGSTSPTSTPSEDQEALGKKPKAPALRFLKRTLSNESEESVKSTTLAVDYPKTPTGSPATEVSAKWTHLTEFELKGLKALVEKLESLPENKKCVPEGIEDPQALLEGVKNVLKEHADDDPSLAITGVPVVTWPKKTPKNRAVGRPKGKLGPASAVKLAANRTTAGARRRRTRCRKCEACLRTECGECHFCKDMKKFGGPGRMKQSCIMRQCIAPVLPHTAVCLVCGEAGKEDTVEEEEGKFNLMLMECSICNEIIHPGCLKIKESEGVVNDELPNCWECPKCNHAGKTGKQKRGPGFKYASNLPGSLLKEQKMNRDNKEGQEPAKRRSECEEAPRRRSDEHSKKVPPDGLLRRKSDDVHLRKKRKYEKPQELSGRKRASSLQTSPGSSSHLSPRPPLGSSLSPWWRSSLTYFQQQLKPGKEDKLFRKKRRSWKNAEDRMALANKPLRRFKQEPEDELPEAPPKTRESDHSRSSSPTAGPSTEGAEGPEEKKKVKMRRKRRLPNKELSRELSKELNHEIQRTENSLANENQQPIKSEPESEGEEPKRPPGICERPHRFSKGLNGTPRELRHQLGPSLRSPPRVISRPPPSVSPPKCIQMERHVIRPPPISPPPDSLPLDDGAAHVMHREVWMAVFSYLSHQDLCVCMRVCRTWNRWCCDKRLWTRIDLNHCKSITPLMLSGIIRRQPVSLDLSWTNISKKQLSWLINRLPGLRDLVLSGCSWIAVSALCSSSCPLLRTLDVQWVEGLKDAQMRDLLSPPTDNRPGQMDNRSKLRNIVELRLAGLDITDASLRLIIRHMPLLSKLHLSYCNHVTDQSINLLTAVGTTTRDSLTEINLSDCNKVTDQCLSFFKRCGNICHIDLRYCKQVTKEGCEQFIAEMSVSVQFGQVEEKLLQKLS
How it was run: as §1

DNMT3B/3L = molecular target: T7, DNMT3B/3L (Homo sapiens, UniProt Q9UBC3)
T7 construct: purchased BPS Bioscience (contracted assay service)
How it was run: (§2)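 CM-444 and CM-1758 were profiled against a broad epigenetic panel of demethylases, methyltransferases, bromodomains and other enzymes. Each was tested at a single concentration of 10 μM, in duplicate.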

SETDB1 = molecular target: T8, SETDB1 (Homo sapiens, UniProt Q15047)
T8 construct: purchased BPS Bioscience; Eurofins (HDAC4, 5, 7-11)
How it was run: as §2

JMJD2B = molecular target: T9, JMJD2B (Homo sapiens, UniProt O94953)
T9 construct: purchased BPS Bioscience; Eurofins (HDAC4, 5, 7-11)
How it was run: as §1

SIRT2 = molecular target: T10, SIRT2 (Homo sapiens, UniProt Q8IXJ6)
T10 construct: purchased BPS Bioscience; Eurofins (HDAC4, 5, 7-11)
T10 sequence (Q8IXJ6 whole entry): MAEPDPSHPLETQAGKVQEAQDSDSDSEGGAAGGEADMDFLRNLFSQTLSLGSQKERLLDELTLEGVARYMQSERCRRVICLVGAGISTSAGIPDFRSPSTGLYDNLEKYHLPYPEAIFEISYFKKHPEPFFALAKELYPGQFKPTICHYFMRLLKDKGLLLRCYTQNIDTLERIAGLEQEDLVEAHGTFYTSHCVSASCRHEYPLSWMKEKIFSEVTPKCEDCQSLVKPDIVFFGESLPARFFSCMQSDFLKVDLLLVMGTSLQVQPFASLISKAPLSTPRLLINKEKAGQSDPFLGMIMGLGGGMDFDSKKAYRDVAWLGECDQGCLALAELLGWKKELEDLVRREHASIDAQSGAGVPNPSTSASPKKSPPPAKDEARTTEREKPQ
How it was run: as §1

GLP = molecular target: T11, GLP (Homo sapiens, UniProt Q9H9B1)
T11 construct: purchased BPS Bioscience; Eurofins (HDAC4, 5, 7-11)
T11 sequence (Q9H9B1 whole entry): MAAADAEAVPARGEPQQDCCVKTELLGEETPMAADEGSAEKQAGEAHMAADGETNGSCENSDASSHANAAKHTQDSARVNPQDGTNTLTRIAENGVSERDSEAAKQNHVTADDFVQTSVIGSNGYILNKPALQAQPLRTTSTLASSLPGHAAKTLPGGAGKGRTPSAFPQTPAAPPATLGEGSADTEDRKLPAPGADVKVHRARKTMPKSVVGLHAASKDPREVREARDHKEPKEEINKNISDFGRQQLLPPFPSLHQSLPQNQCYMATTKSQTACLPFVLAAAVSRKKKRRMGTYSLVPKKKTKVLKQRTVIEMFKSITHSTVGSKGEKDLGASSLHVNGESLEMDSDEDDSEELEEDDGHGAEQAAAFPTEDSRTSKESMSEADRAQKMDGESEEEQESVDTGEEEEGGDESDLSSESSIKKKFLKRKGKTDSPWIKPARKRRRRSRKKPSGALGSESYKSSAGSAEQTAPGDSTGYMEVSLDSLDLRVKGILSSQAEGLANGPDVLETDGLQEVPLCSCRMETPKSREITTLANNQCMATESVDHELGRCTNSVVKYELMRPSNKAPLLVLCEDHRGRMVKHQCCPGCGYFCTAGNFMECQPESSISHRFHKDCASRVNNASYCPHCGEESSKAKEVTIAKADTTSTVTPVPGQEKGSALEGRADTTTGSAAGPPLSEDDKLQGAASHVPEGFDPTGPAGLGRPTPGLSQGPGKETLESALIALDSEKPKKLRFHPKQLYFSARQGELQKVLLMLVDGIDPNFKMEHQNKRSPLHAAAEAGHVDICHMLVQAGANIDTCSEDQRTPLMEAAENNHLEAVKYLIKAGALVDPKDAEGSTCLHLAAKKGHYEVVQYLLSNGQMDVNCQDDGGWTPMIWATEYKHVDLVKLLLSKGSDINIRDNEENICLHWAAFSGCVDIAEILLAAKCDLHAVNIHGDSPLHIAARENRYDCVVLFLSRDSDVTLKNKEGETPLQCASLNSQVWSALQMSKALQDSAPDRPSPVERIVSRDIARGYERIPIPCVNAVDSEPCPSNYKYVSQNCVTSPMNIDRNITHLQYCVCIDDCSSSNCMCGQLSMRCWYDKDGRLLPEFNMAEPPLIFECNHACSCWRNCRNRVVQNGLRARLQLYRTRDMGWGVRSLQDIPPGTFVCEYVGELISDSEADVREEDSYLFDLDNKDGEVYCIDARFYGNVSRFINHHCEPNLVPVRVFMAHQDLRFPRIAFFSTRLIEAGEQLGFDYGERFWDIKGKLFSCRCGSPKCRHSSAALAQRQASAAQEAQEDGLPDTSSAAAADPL
How it was run: as §1

SIRT1 = molecular target: T12, SIRT1 (Homo sapiens, UniProt Q96EB6)
T12 construct: purchased BPS Bioscience; Eurofins (HDAC4, 5, 7-11)
T12 sequence (Q96EB6 whole entry): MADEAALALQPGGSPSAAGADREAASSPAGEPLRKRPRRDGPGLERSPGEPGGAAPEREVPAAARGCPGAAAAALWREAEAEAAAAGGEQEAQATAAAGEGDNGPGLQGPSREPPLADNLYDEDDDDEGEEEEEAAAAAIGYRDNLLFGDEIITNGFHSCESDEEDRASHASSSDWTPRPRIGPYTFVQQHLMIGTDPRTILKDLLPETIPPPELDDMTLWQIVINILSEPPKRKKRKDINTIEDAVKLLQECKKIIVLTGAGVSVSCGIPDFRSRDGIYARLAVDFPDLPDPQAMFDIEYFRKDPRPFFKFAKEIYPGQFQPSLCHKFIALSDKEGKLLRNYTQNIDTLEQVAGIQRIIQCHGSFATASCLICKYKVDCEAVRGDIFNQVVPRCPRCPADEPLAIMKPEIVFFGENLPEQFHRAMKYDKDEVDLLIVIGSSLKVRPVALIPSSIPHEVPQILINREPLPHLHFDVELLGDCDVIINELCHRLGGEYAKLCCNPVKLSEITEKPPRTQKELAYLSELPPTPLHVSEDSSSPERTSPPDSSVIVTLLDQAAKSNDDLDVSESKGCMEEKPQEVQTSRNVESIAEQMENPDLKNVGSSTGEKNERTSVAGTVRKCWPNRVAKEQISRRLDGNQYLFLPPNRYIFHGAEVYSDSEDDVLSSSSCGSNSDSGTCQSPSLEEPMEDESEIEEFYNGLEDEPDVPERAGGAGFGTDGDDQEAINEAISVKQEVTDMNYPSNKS
How it was run: as §1

JHDM1D = molecular target: T13, JHDM1D (Homo sapiens, UniProt Q6ZMT4)
T13 construct: purchased BPS Bioscience; Eurofins (HDAC4, 5, 7-11)
T13 sequence (Q6ZMT4 whole entry): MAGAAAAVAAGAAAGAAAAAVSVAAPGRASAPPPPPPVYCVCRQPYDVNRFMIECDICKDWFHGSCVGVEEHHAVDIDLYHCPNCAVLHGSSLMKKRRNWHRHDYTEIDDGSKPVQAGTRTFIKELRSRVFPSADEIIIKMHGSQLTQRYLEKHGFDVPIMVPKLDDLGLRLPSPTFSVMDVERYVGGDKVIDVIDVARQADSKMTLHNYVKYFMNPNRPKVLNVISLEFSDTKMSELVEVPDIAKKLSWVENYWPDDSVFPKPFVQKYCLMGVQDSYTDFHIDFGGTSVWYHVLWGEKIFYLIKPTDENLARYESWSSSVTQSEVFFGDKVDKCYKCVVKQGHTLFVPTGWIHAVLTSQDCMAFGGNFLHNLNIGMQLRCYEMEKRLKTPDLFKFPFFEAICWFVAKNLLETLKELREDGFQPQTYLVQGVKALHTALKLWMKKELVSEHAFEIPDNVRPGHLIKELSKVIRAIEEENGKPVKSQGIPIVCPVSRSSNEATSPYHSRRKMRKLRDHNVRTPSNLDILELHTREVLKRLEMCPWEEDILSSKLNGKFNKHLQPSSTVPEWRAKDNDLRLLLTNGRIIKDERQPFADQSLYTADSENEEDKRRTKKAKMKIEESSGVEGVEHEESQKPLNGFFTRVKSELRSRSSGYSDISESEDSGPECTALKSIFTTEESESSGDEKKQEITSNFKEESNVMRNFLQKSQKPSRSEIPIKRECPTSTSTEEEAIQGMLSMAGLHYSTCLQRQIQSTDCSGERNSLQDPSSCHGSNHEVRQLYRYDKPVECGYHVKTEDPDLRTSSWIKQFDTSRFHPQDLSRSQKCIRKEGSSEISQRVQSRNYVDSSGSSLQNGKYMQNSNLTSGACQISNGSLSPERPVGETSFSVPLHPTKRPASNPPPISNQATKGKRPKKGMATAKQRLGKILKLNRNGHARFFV
How it was run: as §1

SMILES | inhibition at 10 µM (SETD2) | inhibition at 10 µM (PRMT4) | inhibition at 10 µM (JMJD1B) | inhibition at 10 µM (SMYD2) | inhibition at 10 µM (EZH2 (P132S)) | IC50 (FBXL10) | inhibition at 10 µM (FBXL10) | IC50 (DNMT3B/3L) | inhibition at 10 µM (DNMT3B/3L) | inhibition at 10 µM (SETDB1) | inhibition at 10 µM (JMJD2B) | inhibition at 10 µM (SIRT2) | inhibition at 10 µM (GLP) | inhibition at 10 µM (SIRT1) | inhibition at 10 µM (JHDM1D)
COc1cc2nc(-c3ccc(C)o3)cc(NCC3CCN(c4ncc(C(=O)NO)cn4)CC3)c2cc1OC [CM-444, 2-[4-[[[6,7-dimethoxy-2-(5-methyl-2-furyl)-4-quinolyl]amino]methyl]-1-piperidyl]pyrimidine-5-carbohydroxamic acid] | 0% | 0% | 6% | 9% | 0% | 6.7 µM | 58% | 2.3 µM | 68% | 0% | 1% | 14% | 0% | 13% | 4%
COc1cc2nc(-c3cc(C)oc3C)cc(NCC3CCN(c4ncc(C(=O)NO)cn4)CC3)c2cc1OC [CM-1758, 2-[4-[[[2-(2,5-dimethyl-3-furyl)-6,7-dimethoxy-4-quinolyl]amino]methyl] -1-piperidyl]pyrimidine-5-carbohydroxamic acid] | 11% | 0% | 11% | 16% | 0% | – | 34% | – | 20% | 3% | 10% | 0% | 7% | 1% | 37%
